Data set [1] can be described thus: Inhibition of Haemonchus contortus by L4 development assay. Format: functional.
Data set [2] in a line: Toxicity in orally dosed Swiss mouse assessed as induction of observable clinical effects measured 2 to 4 days after dosing. The note with it: in vivo, po, time 2-4 day. Format: organism-based.
Data set [3] in a line: Toxicity in human MCF-10A cells. Format: cell-based.
The nature of data set [4]: Selectivity index, ratio of IC50 for toxicity in rat FAO cells assessed as reduction in cellular respiration to IC50 for inhibition of Haemonchus contortus by L4 development assay.
Data set [5] in a line: Toxicity in rat FAO cells assessed as reduction in cell proliferation incubated for 48 hrs by crystal violet staining based assay.
Data set [6] is described as follows: Toxicity in rat FAO cells assessed as reduction in cellular respiration incubated over 1 hrs by extracellular flux analyzer based assay. The class given is cell-based.
Data set [7] is described as follows: Toxicity in Swiss mouse assessed as induction of reversible motor depression at 5 mg/kg, po measured at first 15 mins post dosing. The class given is organism-based. The note with it: in vivo, 0.25 h.
A short description of data set [8]: Toxicity in male Swiss mouse assessed as induction of reversible motor depression at 20 mg/kg, po. Format: organism-based. The note with it: in vivo.
Data set [9] can be described thus: Toxicity in female Swiss mouse assessed as induction of reversible motor depression at 20 mg/kg, po. Particulars: in vivo. Format: organism-based.
Data set [10] in a line: Toxicity in male Swiss mouse assessed as induction of reversible motor depression at 50 mg/kg, po. Format: organism-based. Particulars: in vivo.
Data set [11] is described as follows: Toxicity in female Swiss mouse assessed as induction of reversible motor depression at 30 mg/kg, po. Particulars: in vivo. The class given is organism-based.

Ten molecules from ChEMBL document CHEMBL4765471, “1-Methyl-1H-pyrazole-5-carboxamide Derivatives Exhibit Unexpected Acute Mammalian Toxicity” (J Med Chem, 2021) can be followed below.

Each structure is given as a SMILES string.

On to `Cn1ncc(Cl)c1C(=O)NCc1ccc(-c2noc(C3CC3)n2)cc1`, for which the values for the IC50 in data set [1] and in data set [3] were 0.9 nM and 24300 nM, respectively. Moreover, the MTD in data set [2] was 1 mg/kg. In addition, the “Ratio IC50” value in [4] is reported as 4144. The IC50 at 48 h in data set [5] is less than 6000 nM. For the same molecule, the IC50 at 1 h in [6] is 3730 nM. Also, the Activity result in data set [7] is “Toxic”.
For `Cn1ncc(Cl)c1C(=O)NCc1ccc(Oc2ccc(Cl)nc2)cc1`, the IC50 in [1] was 30 nM; in data set [3], more than 50000 nM. Also, in data set [2], the MTD was found to be 1 mg/kg. In addition, the “Ratio IC50” value in [4] was determined as 63. In data set [5], the IC50 at 48 h was less than 6000 nM. In addition, the IC50 at 1 h in [6] is 1900 nM. For the same molecule, the Activity entry in data set [7] was “Toxic”.
Regarding `Cn1ncc(Cl)c1C(=O)NCc1ccc(Oc2ccc(Cl)cc2)cc1`, the IC50 was 1 nM in [1] and more than 50000 nM in data set [3]. For the same molecule, the MTD in data set [2] was found to be 5 mg/kg. Further, the “Ratio IC50” value in [4] is given as 1700. For the same molecule, the IC50 at 48 h in data set [5] is less than 6000 nM. Besides, the Activity result in [8] and in data set [9] was “Toxic” in each case. Also, the IC50 at 1 h in [6] was determined as 1700 nM.
On to `CCc1nc(-c2ccc(CNC(=O)c3ccnn3C)cc2)no1`, for which the IC50 in data set [1] is 200 nM; in data set [3] it was more than 100000 nM. For the same molecule, the MTD in [2] was found to be 1 mg/kg. Further, the “Ratio IC50” value in [4] was determined as 7. For the same molecule, in [5], the IC50 at 48 h was less than 6000 nM. In addition, in [6], the IC50 at 1 h stood at 1300 nM. For the same molecule, in [7], the Activity entry is reported as “Toxic”.
`Cc1nn(C)c(C(=O)NCc2ccc(Oc3ccc(Cl)nc3)cc2)c1Cl`: the IC50 in data set [1] is 0.3 nM; in [3] it was more than 50000 nM. Besides, the MTD in [2] is 1 mg/kg. For the same molecule, the “Ratio IC50” value in [4] is 500. Moreover, in data set [5], the IC50 at 48 h is less than 6000 nM. For the same molecule, the IC50 at 1 h in data set [6] was 150 nM. In addition, the Activity entry in data set [7] is reported as “Toxic”.
Consider `CCc1nn(C)c(C(=O)NCc2ccc(Oc3ccc(Cl)cc3)cc2)c1Cl`, for which the 50% inhibitory concentration (IC50) in data set [1] was 80 nM; in data set [3], 8700 nM. Also, the “Ratio IC50” value in [4] worked out at 6. The IC50 at 48 h in data set [5] is less than 6000 nM. In addition, the IC50 at 1 h in [6] is 510 nM.
Taken in the same sequence, the figures for `CCc1nc(-c2ccc(CNC(=O)c3c(Cl)c(CC)nn3C)cc2)no1` were 2 nM, more than 50000 nM, 80, less than 6000 nM and 160 nM.
On to `Cc1ccc(Oc2ccc(CNC(=O)c3c(F)cnn3C)cc2)cc1`, for which the figures for the IC50 in data set [1] and in data set [3] were 10 nM and 13700 nM, respectively. In [2], the MTD was 20 mg/kg. In data set [4], the “Ratio IC50” value turned out to be 430. Besides, the Activity entry in data set [10] and in data set [11] was “Toxic” in each case. Further, the IC50 at 48 h in [5] was less than 6000 nM. In [6], the IC50 at 1 h is 4300 nM.
Turning to `CCc1nn(C)c(C(=O)NCc2ccc(Oc3ccc(C)cc3)cc2)c1Cl` [TOLFENPYRAD], the IC50 is 20 nM in data set [1] and 33700 nM in data set [3]. Moreover, the MTD in data set [2] is 1 mg/kg. In addition, in data set [4], the “Ratio IC50” value is 55. For the same molecule, the IC50 at 48 h in [5] is less than 6000 nM. Further, in data set [6], the IC50 at 1 h amounted to 1100 nM. The Activity entry in data set [7] was “Toxic”.
`Cc1nn(C)c(C(=O)NCc2ccc(Oc3ccc(Cl)cc3)cc2)c1Cl`: the IC50 in data set [1] is less than 0.7 nM; in [3], 50000 nM. Also, the “Ratio IC50” value in data set [4] turned out to be 181. In data set [5], the IC50 at 48 h is less than 6000 nM. For the same molecule, the IC50 at 1 h in data set [6] was 1270 nM.
